Data: patent US20250064773A1, “TARGETING ERO1 ALPHA WITH AURONE DERIVATIVES” (West Virginia University Board of Governors on behalf of …, priority 2021, published 2025)
“Also recorded” adds a separate entry of the source.

Test system: PC-9 cells
Assay: Soft agar clonogenic assay, PC-9
Assay type: cell-based
Settings: 14 days, 3.75-15 μM
Protocol: We utilized an MTT assay to determine the potency of the compounds for inhibiting cell growth. […] We next asked whether T151742 induced inhibition of cell growth was dependent on ERO1α expression. As shown in FIG. 6C two ERO1α deleted clones in the PC-9 cell line were isolated. Using an MTT assay to determine overall cellar viability, a non-targeted control (scramble), and both ERO1α knockout clones was subjected to treatment with T151742 for 72 hours (See FIG. 6D). […] Though only slight differences were observed between T151742 and EN-460 we tested the effects of these compounds in a clonogenic assay which is a better test for inhibition of self-renewal.
FIG. 7A and FIG. 7B show 1000 cells/well were plated in a 12-well plate in triplicate with either 0.5% DMSO, T151742, or EN-460 and allowed to form colonies for 14 days. Colonies were subsequently stained with 0.01% Crystal Violet, imaged, and quantified using ImageJ. […] Colonies were stained with 0.01% Crystal Violet, imaged, and quantified using ImageJ.
Cell Lines: PC-9 cell line used was obtained from Sigma Aldrich and grown in RPMI 1640 medium with 10% fetal bovine serum and 1% penicillin/streptomycin. […] Plate was then read on the BioTek Cytation 5 at 530/590 nm. […] Plate was then read at 570 nm. […] Images were then quantified using ImageJ. […]

Compound: CN(C)c1ccc(/C=C2\Oc3cc(O)ccc3C2=O)cc1 [Compound T151742]
- activity in clonogenicity assay (colony number): retained activity; also recorded: significantly more potent at reducing colony number
